From patent publication US6352958B1, “Cycloimido-substituted benzofused heterocyclic herbicides” (FMC Corporation, priority 1997, dated 2002)

Key:
Type in all cases: in vivo
[1] = tested on: soybean (Glycine max var. Winchester); assay: Preemergence herbicidal activity, soybean; details: Rate of Application 0.3 Kg/Ha, examined after 12-17 days
[2] = tested on: wheat (Triticum aestivum var. Lew); assay: Preemergence herbicidal activity, wheat; details: Rate of Application 0.3 Kg/Ha, examined after 12-17 days
[3] = tested on: field corn (Zea mays var. Pioneer 3732); assay: Preemergence herbicidal activity, corn; details: Rate of Application 0.3 Kg/Ha, examined after 12-17 days
[4] = tested on: velvetleaf (Abutilon theophrasti); assay: Preemergence herbicidal activity, velvetleaf; details: Rate of Application 0.3 Kg/Ha, examined after 12-17 days
[5] = tested on: morningglory (Ipomea lacunosa or Ipomea hederacea); assay: Preemergence herbicidal activity, morningglory; details: Rate of Application 0.3 Kg/Ha, examined after 12-17 days
[6] = tested on: common chickweed (Stellaria media); assay: Preemergence herbicidal activity, chickweed; details: Rate of Application 0.3 Kg/Ha, examined after 12-17 days
[7] = tested on: common cocklebur (Xanthium strumarium L.); assay: Preemergence herbicidal activity, cocklebur; details: Rate of Application 0.3 Kg/Ha, examined after 12-17 days
[8] = tested on: blackgrass (Aloepecurus myosuroides); assay: Preemergence herbicidal activity, blackgrass; details: Rate of Application 0.3 Kg/Ha, examined after 12-17 days
[9] = tested on: green foxtail (Setaria viridis); assay: Preemergence herbicidal activity, green foxtail; details: Rate of Application 0.3 Kg/Ha, examined after 12-17 days
[10] = tested on: Johnsongrass (Sorghum halepense); assay: Preemergence herbicidal activity, johnsongrass; details: Rate of Application 0.3 Kg/Ha, examined after 12-17 days
[11] = tested on: soybean (Glycine max var. Winchester); assay: Postemergence herbicidal activity, soybean; details: rate of application 0.3 Kg/Ha, rated after 12-17 days
[12] = tested on: wheat (Triticum aestivum var. Lew); assay: Postemergence herbicidal activity, wheat; details: rate of application 0.3 Kg/Ha, rated after 12-17 days
[13] = tested on: field corn (Zea mays var. Pioneer 3732); assay: Postemergence herbicidal activity, corn; details: rate of application 0.3 Kg/Ha, rated after 12-17 days
[14] = tested on: velvetleaf (Abutilon theophrasti); assay: Postemergence herbicidal activity, velvetleaf; details: rate of application 0.3 Kg/Ha, rated after 12-17 days
[15] = tested on: morningglory (Ipomea lacunosa or Ipomea hederacea); assay: Postemergence herbicidal activity, morningglory; details: rate of application 0.3 Kg/Ha, rated after 12-17 days
[16] = tested on: common cocklebur (Xanthium strumarium L.); assay: Postemergence herbicidal activity, cocklebur; details: rate of application 0.3 Kg/Ha, rated after 12-17 days
[17] = tested on: blackgrass (Aloepecurus myosuroides); assay: Postemergence herbicidal activity, blackgrass; details: rate of application 0.3 Kg/Ha, rated after 12-17 days
[18] = tested on: green foxtail (Setaria viridis); assay: Postemergence herbicidal activity, green foxtail; details: rate of application 0.3 Kg/Ha, rated after 12-17 days
[19] = tested on: Johnsongrass (Sorghum halepense); assay: Postemergence herbicidal activity, johnsongrass; details: rate of application 0.3 Kg/Ha, rated after 12-17 days

SMILES | PREEMERGENCE HERBICIDAL ACTIVITY (% CONTROL) SOY [1] [%] | PREEMERGENCE HERBICIDAL ACTIVITY (% CONTROL) WHT [2] [%] | PREEMERGENCE HERBICIDAL ACTIVITY (% CONTROL) CRN [3] [%] | PREEMERGENCE HERBICIDAL ACTIVITY (% CONTROL) ABUTH [4] [%] | PREEMERGENCE HERBICIDAL ACTIVITY (% CONTROL) IPOSS [5] [%] | PREEMERGENCE HERBICIDAL ACTIVITY (% CONTROL) STEME [6] [%] | PREEMERGENCE HERBICIDAL ACTIVITY (% CONTROL) XANPE [7] [%] | PREEMERGENCE HERBICIDAL ACTIVITY (% CONTROL) ALOMY [8] [%] | PREEMERGENCE HERBICIDAL ACTIVITY (% CONTROL) SETVI [9] [%] | PREEMERGENCE HERBICIDAL ACTIVITY (% CONTROL) SORHA [10] [%] | Postemergence herbicidal activity (% control) SOY [11] [%] | Postemergence herbicidal activity (% control) WHT [12] [%] | Postemergence herbicidal activity (% control) CRN [13] [%] | Postemergence herbicidal activity (% control) ABUTH [14] [%] | Postemergence herbicidal activity (% control) IPOSS [15] [%] | Postemergence herbicidal activity (% control) XANPE [16] [%] | Postemergence herbicidal activity (% control) ALOMY [17] [%] | Postemergence herbicidal activity (% control) SETVI [18] [%] | Postemergence herbicidal activity (% control) SORHA [19] [%] | other results
COc1nc2c(-n3c(=O)cc(C(F)(F)F)n(C)c3=O)c(F)cc(Br)c2o1 [Compound 109, 1-METHYL-6-TRIFLUOROMETHYL-3-(7-BROMO-5-FLUORO-2-METHOXYBENZOXAZOL-4-YL)-2,4(1H,3H)-PYRIMIDINEDIONE] | – | – | – | – | – | – | – | – | – | – | – | – | – | – | – | – | – | – | – | inhibition at 300 g/ha ([1]; Glycine max, pre-emergence, read-out: PREEMERGENCE HERBICIDAL ACTIVITY (% CONTROL) SOY): 100%; inhibition at 300 g/ha ([2]; Triticum aestivum, pre-emergence, read-out: PREEMERGENCE HERBICIDAL ACTIVITY (% CONTROL) WHT): 100%; inhibition at 300 g/ha ([3]; Zea mays, pre-emergence, read-out: PREEMERGENCE HERBICIDAL ACTIVITY (% CONTROL) CRN): 90%; inhibition at 300 g/ha ([4]; Abutilon theophrasti, pre-emergence, read-out: PREEMERGENCE HERBICIDAL ACTIVITY (% CONTROL) ABUTH): 100%; inhibition at 300 g/ha ([5]; Ipomoea, pre-emergence, read-out: PREEMERGENCE HERBICIDAL ACTIVITY (% CONTROL) IPOSS): 100%; inhibition at 300 g/ha ([6]; Stellaria media, pre-emergence, read-out: PREEMERGENCE HERBICIDAL ACTIVITY (% CONTROL) STEME): 100%; inhibition at 300 g/ha ([7]; Xanthium strumarium, pre-emergence, read-out: PREEMERGENCE HERBICIDAL ACTIVITY (% CONTROL) XANPE): 100%; inhibition at 300 g/ha ([8]; Alopecurus myosuroides, pre-emergence, read-out: PREEMERGENCE HERBICIDAL ACTIVITY (% CONTROL) ALOMY): 100%; inhibition at 300 g/ha ([9]; Setaria viridis, pre-emergence, read-out: PREEMERGENCE HERBICIDAL ACTIVITY (% CONTROL) SETVI): 100%; inhibition at 300 g/ha ([10]; Sorghum halepense, pre-emergence, read-out: PREEMERGENCE HERBICIDAL ACTIVITY (% CONTROL) SORHA): 100%; inhibition at 300 g/ha ([11]; Glycine max, post-emergence, read-out: Postemergence herbicidal activity (% control) SOY): 90%; inhibition at 300 g/ha ([12]; Triticum aestivum, post-emergence, read-out: Postemergence herbicidal activity (% control) WHT): 90%; inhibition at 300 g/ha ([13]; Zea mays, post-emergence, read-out: Postemergence herbicidal activity (% control) CRN): 80%; inhibition at 300 g/ha ([14]; Abutilon theophrasti, post-emergence, read-out: Postemergence herbicidal activity (% control) ABUTH): 100%; inhibition at 300 g/ha ([15]; Ipomoea, post-emergence, read-out: Postemergence herbicidal activity (% control) IPOSS): 100%; inhibition at 300 g/ha ([16]; Xanthium strumarium, post-emergence, read-out: Postemergence herbicidal activity (% control) XANPE): 100%; inhibition at 300 g/ha ([17]; Alopecurus myosuroides, post-emergence, read-out: Postemergence herbicidal activity (% control) ALOMY): 90%; inhibition at 300 g/ha ([18]; Setaria viridis, post-emergence, read-out: Postemergence herbicidal activity (% control) SETVI): 100%; inhibition at 300 g/ha ([19]; Sorghum halepense, post-emergence, read-out: Postemergence herbicidal activity (% control) SORHA): 90%
C=CCOc1nc2c(-n3c(=O)cc(C(F)(F)F)n(C)c3=O)c(F)cc(Br)c2o1 [Compound 110] | 100 | 50 | 70 | 100 | 90 | 100 | 40 | 80 | 100 | 100 | 80 | 40 | 50 | 100 | 100 | 100 | 70 | 80 | 70 | –
Cn1c(C(F)(F)F)cc(=O)n(-c2c(F)cc(Cl)c3cc(CCF)oc23)c1=O [Compound 237] | 100 | 90 | 90 | 100 | 100 | 100 | 100 | 100 | 100 | 100 | 100 | 95 | 100 | 100 | 100 | 100 | 100 | 100 | 100 | –
